Reference: patent US20220305012A1, “L[…] TREATING SLEEP ISSUES” (EISAI R&D MANAGEMENT CO., LTD., priority 2019, published 2022)

Key:
Type in all cases: in vivo, human
[1] = system: Subjects Having Insomnia Disorder; test: Example 2: subjective wake after sleep onset (sWASO), sleep diary
Description: As used herein, the term “subjective wake after sleep onset”, abbreviated as “sWASO”, means the sum of estimated minutes of wake during the night after initial sleep onset until the time the subject stopped trying to sleep for the night, operationalized as the time the subject got out of bed for the day. In some embodiments, sWASO is derived from data entered in a subject's Sleep Diary. As used herein, an “improvement of sWASO” means a reduction in sWASO.
(§1) In some embodiments, sleep diaries were used to assess sleep parameters reported by subjects (i.e., subjective assessments) including subjective sleep onset latency (sSOL), subjective sleep efficiency (sSE), subjective WASO (sWASO), and subjective total sleep time (sTST). Subjects were instructed to complete the Sleep Diary developed based on the consensus Sleep Diary as described in Carney et al., “The consensus sleep diary: standardizing prospective sleep self-monitoring,” Sleep 2012; 35(2):287-302. In some embodiments, the Sleep Diary was used to assess the subject's global perception of quality of sleep on the previous night with the following question: “How would you rate the quality of your sleep last night?” Subjects rated the quality of their sleep on a scale from 1 to 9, with 1 being extremely poor and 9 being extremely good. In some embodiments, the Sleep Diary was used to assess subjective ratings of morning sleepiness with the following question: “How alert/sleepy do you feel this morning?” Subjects rated their sleepiness/alertness level on a Likert scale from 1 to 9, with 1 being extremely sleepy and 9 being extremely alert.
sWASO—subjective wake after sleep onset: sum of estimated minutes of wake during the night after initial sleep onset until the time the subject stopped trying to sleep for the night, operationalized as the time the subject got out of bed for the day.
(§2) The treatment period lasted for 31 days. Subjects were randomized in a double-blind manner and received placebo, a tablet containing 5 mg of lemborexant, a tablet containing 10 mg of lemborexant, or a tablet containing 6.25 mg of zolpidem ER.
(§3) Once home, the subject ingested study drug each night prior to bedtime and completed their sleep diary within 1 hour of waketime.

[2] = system: Subjects Having Insomnia Disorder; test: Example 2: subjective total sleep time (sTST), sleep diary
Description: As used herein, the term “subjective total sleep time”, abbreviated as “sTST”, means the derived minutes of sleep from sleep onset until the time the subject stopped trying to sleep for the night. In some embodiments, sTST is derived from data entered in a subject's Sleep Diary.
as §1
sTST—subjective total sleep time: derived minutes of sleep from sleep onset until the time the subject stopped trying to sleep for the night.
as §2, §3

[3] = system: Subjects Having Insomnia Disorder; test: Example 2: treatment-emergent adverse events
Method: Between 14 and 18 days after completion of the treatment period, subjects returned to the clinic for the end of study visit. The T-BWSQ and eC-SSRS were administered and routine safety assessments were conducted.
A subject who prematurely discontinued taking study drug was to return to the clinic as soon as practicable after discontinuing study drug. If the subject discontinued due to an adverse event, the adverse event must have been followed to resolution or for 2 weeks, whichever came first. Additionally, subjects who discontinued early underwent a urine drug test.

[4] = system: Subjects Having Insomnia Disorder; test: Example 2: wake after sleep onset (WASO), polysomnography
Method: In some embodiments, a sleep parameter is determined objectively using polysomnography. Polysomnography is the monitoring of multiple electrophysiological parameters during sleep and generally includes measurement of EEG activity, electro-oculographic activity and electromyographic activity, as well as other measurements.
WASO—wake after sleep onset: minutes of wake from the onset of persistent sleep until lights on.
as §2
Within 5 minutes of the subject's mean habitual bedtime, study drug was administered and an overnight polysomnogram recording was initiated. At completion of the recording the following morning (Day 2), postural stability and cognitive performance were assessed. On the Day 2 evening, subjects returned to the clinic and a blood sample was collected before administering study drug, and then study drug was administered within 5 minutes of the subject's mean habitual bedtime. Again, a polysomnogram recording was initiated. The next morning (Day 3), postural stability and cognitive performance were assessed. A blood sample was also collected.
On Day 29, subjects returned to the clinic. Study drug was administered within 5 minutes of the subject's mean habitual bedtime and a polysomnogram recording was conducted. On the following morning (Day 30), postural stability and cognitive performance were assessed. After 1.5 hours of waketime, subjects rated their morning sleepiness level.
On the evening of Day 30, subjects returned to the clinic. A pre-dose blood sample was collected and study drug was again administered within 5 minutes of the subject's mean habitual bedtime. A polysomnogram recording was initiated. The following morning (Day 31), postural stability and cognitive performance were assessed and a blood sample was obtained. The ISI, FSS, EQ-5D-3L and PGI-Insomnia were administered. Blood and urine samples were collected for routine safety assessment. An electrocardiogram was performed, and vital signs and weight were assessed. The eC-SSRS was then administered to the subject. At 1.5 hours after waketime, subjects rated their morning sleepiness level.
Another key secondary endpoint was to determine the change from baseline for mean wake after sleep onset on Days 29 and 30 after administration of 5 mg or 10 mg of lemborexant, compared to placebo.

[5] = First 7 Nights of Treatment, Lemborexant 5 mg
[6] = First 7 Nights of Treatment, Lemborexant 10 mg
[7] = Last 7 Nights of Treatment, Lemborexant 5 mg
[8] = Last 7 Nights of Treatment, Lemborexant 10 mg

Structure (SMILES): Cc1ncc(OC[C@@]2(c3cccc(F)c3)C[C@H]2C(=O)Nc2ccc(F)cn2)c(C)n1 [Lemborexant, (1R,2S)-2-(((2,4-dimethylpyrimidin-5-yl)oxy)methyl)-2-(3-fluorophenyl)-N-(5-fluoropyridin-2-yl)cyclopropanecarboxamide]
- mean subjective wake after sleep onset ([1]; 10 mg, relative to baseline, placebo and zolpidem treatment groups (Table 20)): reduced
- Subjective Wake After Sleep Onset, Change from Study Baseline, Mean (SD) [1, 5]: −39.33 (55.022)
- Subjective Wake After Sleep Onset, Mean (SD) [1, 5]: 127.37 (78.303)
- Subjective Wake After Sleep Onset, Model-adjusted change from baseline [1, 5]: −39.97
- Subjective Wake After Sleep Onset, Change from Study Baseline, Mean (SD) [1, 6]: −55.06 (66.696)
- Subjective Wake After Sleep Onset, Mean (SD) [1, 6]: 119.78 (74.825)
- Subjective Wake After Sleep Onset, Model-adjusted change from baseline [1, 6]: −53.90
- Subjective Wake After Sleep Onset, Change from Study Baseline, Mean (SD) [1, 7]: −44.51 (58.090)
- Subjective Wake After Sleep Onset, Mean (SD) [1, 7]: 119.30 (81.645)
- Subjective Wake After Sleep Onset, Model-adjusted change from baseline [1, 7]: −47.55
- Subjective Wake After Sleep Onset, Change from Study Baseline, Mean (SD) [1, 8]: −57.96 (72.791)
- Subjective Wake After Sleep Onset, Mean (SD) [1, 8]: 117.08 (83.753)
- Subjective Wake After Sleep Onset, Model-adjusted change from baseline [1, 8]: −56.64
- mean subjective total sleep time ([2]; 10 mg, relative to baseline, placebo and zolpidem treatment groups (Table 21)): increased
- Subjective Total Sleep Time, Change from Study Baseline, Mean (SD) [2, 5]: 50.30 (60.065)
- Subjective Total Sleep Time, Mean (SD) [2, 5]: 322.66 (89.706)
- Subjective Total Sleep Time, Model-adjusted change from baseline [2, 5]: 51.14
- Subjective Total Sleep Time, Change from Study Baseline, Mean (SD) [2, 6]: 67.80 (71.134)
- Subjective Total Sleep Time, Mean (SD) [2, 6]: 332.92 (91.538)
- Subjective Total Sleep Time, Model-adjusted change from baseline [2, 6]: 66.59
- Subjective Total Sleep Time, Change from Study Baseline, Mean (SD) [2, 7]: 62.41 (68.555)
- Subjective Total Sleep Time, Mean (SD) [2, 7]: 334.22 (94.339)
- Subjective Total Sleep Time, Model-adjusted change from baseline [2, 7]: 64.22
- Subjective Total Sleep Time, Change from Study Baseline, Mean (SD) [2, 8]: 79.95 (81.211)
- Subjective Total Sleep Time, Mean (SD) [2, 8]: 343.68 (95.785)
- Subjective Total Sleep Time, Model-adjusted change from baseline [2, 8]: 78.47
- safety and tolerability (incidence of adverse events) ([3]; Example 2 (Table 29)): safe and well-tolerated
- Congenital anomaly/birth defect ([3]; Lemborexant 5 mg (N = 266)): 0 n (%)
- Deaths ([3]; Lemborexant 5 mg (N = 266)): 0 n (%)
- Important medical events ([3]; Lemborexant 5 mg (N = 266)): 1 (0.3) n (%)
- Life threatening ([3]; Lemborexant 5 mg (N = 266)): 0 n (%)
- Other SAEs ([3]; Lemborexant 5 mg (N = 266)): 2 (0.8) n (%)
- Persistent or significant disability or incapacity ([3]; Lemborexant 5 mg (N = 266)): 0 n (%)
- Requires inpatient hospitalization or prolongation of existing hospitalization ([3]; Lemborexant 5 mg (N = 266)): 2 (0.8) n (%)
- Serious TEAEs ([3]; Lemborexant 5 mg (N = 266)): 2 (0.8) n (%)
- Severe TEAEs ([3]; Lemborexant 5 mg (N = 266)): 1 (0.4) n (%)
- TEAEs ([3]; Lemborexant 5 mg (N = 266)): 74 (27.8) n (%)
- TEAEs leading to study dose reduced ([3]; Lemborexant 5 mg (N = 266)): 0 n (%)
- TEAEs leading to study drug dose adjustment ([3]; Lemborexant 5 mg (N = 266)): 3 (1.1) n (%)
- TEAEs leading to study drug interrupted ([3]; Lemborexant 5 mg (N = 266)): 1 (0.4) n (%)
- TEAEs leading to study drug withdrawal ([3]; Lemborexant 5 mg (N = 266)): 2 (0.8) n (%)
- Treatment-related TEAEs ([3]; Lemborexant 5 mg (N = 266)): 30 (11.3) n (%)
- Congenital anomaly/birth defect ([3]; Lemborexant 10 mg (N = 268)): 0 n (%)
- Deaths ([3]; Lemborexant 10 mg (N = 268)): 0 n (%)
- Important medical events ([3]; Lemborexant 10 mg (N = 268)): 0 n (%)
- Life threatening ([3]; Lemborexant 10 mg (N = 268)): 0 n (%)
- Other SAEs ([3]; Lemborexant 10 mg (N = 268)): 0 n (%)
- Persistent or significant disability or incapacity ([3]; Lemborexant 10 mg (N = 268)): 0 n (%)
- Requires inpatient hospitalization or prolongation of existing hospitalization ([3]; Lemborexant 10 mg (N = 268)): 0 n (%)
- Serious TEAEs ([3]; Lemborexant 10 mg (N = 268)): 0 n (%)
- Severe TEAEs ([3]; Lemborexant 10 mg (N = 268)): 2 (0.7) n (%)
- TEAEs ([3]; Lemborexant 10 mg (N = 268)): 82 (30.6) n (%)
- TEAEs leading to study dose reduced ([3]; Lemborexant 10 mg (N = 268)): 0 n (%)
- TEAEs leading to study drug dose adjustment ([3]; Lemborexant 10 mg (N = 268)): 3 (1.1) n (%)
- TEAEs leading to study drug interrupted ([3]; Lemborexant 10 mg (N = 268)): 0 n (%)
- TEAEs leading to study drug withdrawal ([3]; Lemborexant 10 mg (N = 268)): 3 (1.1) n (%)
- Treatment-related TEAEs ([3]; Lemborexant 10 mg (N = 268)): 39 (14.6) n (%)
- Wake After Sleep Onset, Change from Study Baseline, Mean (SD) ([4]; Days 1/2, Lemborexant 5 mg): −49.96 (39.578)
- Wake After Sleep Onset, Change from Study Baseline, Median ([4]; Days 1/2, Lemborexant 5 mg): −46.75
- Wake After Sleep Onset, Mean (SD) ([4]; Days 1/2, Lemborexant 5 mg): 63.48 (31.484)
- Wake After Sleep Onset, Median ([4]; Days 1/2, Lemborexant 5 mg): 58.38
- Wake After Sleep Onset, Change from Study Baseline, Mean (SD) ([4]; Days 1/2, Lemborexant 10 mg): −59.59
- Wake After Sleep Onset, Change from Study Baseline, Median ([4]; Days 1/2, Lemborexant 10 mg): −54.50
- Wake After Sleep Onset, Mean (SD) ([4]; Days 1/2, Lemborexant 10 mg): 55.23
- Wake After Sleep Onset, Median ([4]; Days 1/2, Lemborexant 10 mg): 48.75
- Wake After Sleep Onset, Change from Study Baseline, LSM treatment difference: Lemborexant-Zolpidem ([4]; Days 29/30, Lemborexant 5 mg): −7.72 (2.876)
- Wake After Sleep Onset, Change from Study Baseline, Mean (SD) ([4]; Days 29/30, Lemborexant 5 mg): −43.89 (39.264)
- Wake After Sleep Onset, Change from Study Baseline, Median ([4]; Days 29/30, Lemborexant 5 mg): −39.50
- Wake After Sleep Onset, Mean (SD) ([4]; Days 29/30, Lemborexant 5 mg): 69.10 (34.533)
- Wake After Sleep Onset, Median ([4]; Days 29/30, Lemborexant 5 mg): 62.63
- Wake After Sleep Onset, Change from Study Baseline, LSM treatment difference: Lemborexant-Zolpidem ([4]; Days 29/30, Lemborexant 10 mg): −9.10
- Wake After Sleep Onset, Change from Study Baseline, Mean (SD) ([4]; Days 29/30, Lemborexant 10 mg): −46.43
- Wake After Sleep Onset, Change from Study Baseline, Median ([4]; Days 29/30, Lemborexant 10 mg): −46.50
- Wake After Sleep Onset, Mean (SD) ([4]; Days 29/30, Lemborexant 10 mg): 68.60
- Wake After Sleep Onset, Median ([4]; Days 29/30, Lemborexant 10 mg): 62.50
- mean wake after sleep onset ([4]; all lemborexant treatment groups, relative to baseline, placebo and zolpidem treatment groups (Table 15)): reduced
